pEC50: −log10 of the molar value. Where two headings read alike, the source gives them in different places.
Experiments:
[1] = biological target: T1, human somatostatin receptor subtype 2 (Homo sapiens, UniProt P30874); test: cAMP assay for SST2R (inhibition of cAMP via human SST2 receptor); format: cell-based; details: Table B, read-out: SST2 potency
T1 construct: expressed in transfected cells
Excerpt: cAMP Assay Protocol for SST2R:

[2] = biological target: human somatostatin receptor subtype 5 (Homo sapiens, UniProt P35346); test: cAMP assay for SST5R (inhibition of cAMP via human SST5 receptor); details: for Fold selectivity for SST5 vs SST2: SST5 over SST2, class symbols
[3] = read-out: SST5 potency, inhibition of cAMP via human SST5 receptor, Table B

T1 sequence (P30874 whole entry): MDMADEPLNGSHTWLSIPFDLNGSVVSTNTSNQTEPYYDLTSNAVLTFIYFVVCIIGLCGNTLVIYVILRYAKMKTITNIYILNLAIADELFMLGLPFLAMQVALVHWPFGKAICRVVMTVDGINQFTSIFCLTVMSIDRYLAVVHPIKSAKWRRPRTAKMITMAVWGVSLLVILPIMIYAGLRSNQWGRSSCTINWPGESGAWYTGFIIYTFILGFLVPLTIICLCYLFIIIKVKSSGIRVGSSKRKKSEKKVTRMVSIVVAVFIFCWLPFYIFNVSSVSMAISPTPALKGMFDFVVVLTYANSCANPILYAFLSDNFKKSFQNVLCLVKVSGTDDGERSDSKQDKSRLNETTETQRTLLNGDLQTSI
Sequence of human somatostatin receptor subtype 5 (P35346 whole entry): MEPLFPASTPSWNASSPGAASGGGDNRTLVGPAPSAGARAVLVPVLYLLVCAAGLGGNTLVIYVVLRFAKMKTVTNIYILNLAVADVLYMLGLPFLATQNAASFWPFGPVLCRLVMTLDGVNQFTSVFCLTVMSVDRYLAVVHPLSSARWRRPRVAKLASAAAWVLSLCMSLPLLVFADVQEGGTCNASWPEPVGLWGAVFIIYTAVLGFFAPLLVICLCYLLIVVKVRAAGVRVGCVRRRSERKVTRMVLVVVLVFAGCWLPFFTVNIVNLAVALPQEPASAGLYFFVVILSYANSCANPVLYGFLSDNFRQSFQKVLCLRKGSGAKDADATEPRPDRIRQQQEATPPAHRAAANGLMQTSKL

In the case of `Cc1ccnc2[nH]c(-c3cncc(-c4cccc(C#N)c4)c3N3CC[C@](C)(N)C3)nc12` [Compound 2-155, 3-{4-[(3S)-3-amino-3-methylpyrrolidin-1-yl]-5-{7-methyl-1H-imidazo[4,5-b]pyridin-2-yl}pyridin-3-yl}benzonitrile], the pEC50 [1] was 6.00 to 7.00, the pEC50 [2] was > 8.00 and the “Fold selectivity for SST5 vs SST2” value [2] was “++ (++=100 to 499)”. The pEC50 [2, 3] was > 8.00.

In the case of `COc1ccnc2nc(-c3cncc(-c4ccc(F)c(C#N)c4)c3N3CC[C@](C)(N)C3)[nH]c12` [Compound 2-172, 5-{4-[(3S)-3-amino-3-methylpyrrolidin-1-yl]-5-{7-methoxy-1H-imidazo[4,5-b]pyridin-2-yl}pyridin-3-yl}-2-fluorobenzonitrile], the pEC50 [1] was < 6.00, the pEC50 [2] was > 8.00 and the “Fold selectivity for SST5 vs SST2” value [2] was “+++ (+++=≥500)”. The pEC50 [2, 3] was > 8.00.

`Cc1cccc2nc(-c3cncc(-c4ccc(F)c(OC(F)(F)F)c4)c3N3CC[C@H](N)C3)[nH]c12` [Compound 2-141, (3S)-1-{3-[4-fluoro-3-(trifluoromethoxy)phenyl]-5-(4-methyl-1H-1,3-benzodiazol-2-yl)pyridin-4-yl}pyrrolidin-3-amine] was tested, and the pEC50 [1] was 6.00 to 7.00, the pEC50 [2] was > 8.00 and the “Fold selectivity for SST5 vs SST2” value [2] was “++ (++=100 to 499)”. The pEC50 [2, 3] was > 8.00.

In the case of `C[C@]1(N)CCN(c2c(-c3cccc(C#N)c3)cncc2-c2nc3cccc(C#N)c3[nH]2)C1` [Compound 2-177, 2-{4-[(3 S)-3-amino-3-methylpyrrolidin-1-yl]-5-(3-cyanophenyl)pyridin-3-yl}-1H-1,3-benzodiazole-7-carbonitrile], the pEC50 [1] was 6.00 to 7.00, the pEC50 [2] was > 8.00 and the “Fold selectivity for SST5 vs SST2” value [2] was “+++ (+++=≥500)”. For the same compound, the pEC50 [2, 3] was > 8.00.

For `Cc1ccnc2nc(-c3cncc(-c4cc(F)c(F)c(C#N)c4)c3N3CCC(C)(N)C3)[nH]c12` (stereo not shown) [Compound 2-140, 5-[4-(3-amino-3-methylpyrrolidin-1-yl)-5-{7-methyl-1H-imidazo[4,5-b]pyridin-2-yl}pyridin-3-yl]-2,3-difluorobenzonitrile], the pEC50 [1] was 7.00 to 8.00, the pEC50 [2] was > 8.00 and the “Fold selectivity for SST5 vs SST2” value [2] was “++ (++=100 to 499)”. The pEC50 [2, 3] was > 8.00.

With `Cc1cccc2nc(-c3cncc(-c4ccc(F)c(C#N)c4)c3N3CC[C@H](N)C3)[nH]c12` [Compound 2-37, 5-{4-[(3S)-3-aminopyrrolidin-1-yl]-5-(4-methyl-1H-1,3-benzodiazol-2-yl)pyridin-3-yl}-2-fluorobenzonitrile] the pEC50 [1] was 6.00 to 7.00, the pEC50 [2] was > 8.00 and the “Fold selectivity for SST5 vs SST2” value [2] was “+++ (+++=≥500)”. For the same compound, the pEC50 [2, 3] was > 8.00.

With `CC1(N)CCN(c2c(-c3cccc(C#N)c3)cncc2-c2nc3cccc(F)c3[nH]2)C1` (stereo not shown) [Compound 2-13, 3-[4-(3-amino-3-methylpyrrolidin-1-yl)-5-(4-fluoro-1H-1,3-benzodiazol-2-yl)pyridin-3-yl]benzonitrile] the pEC50 [1] was 6.00 to 7.00, the pEC50 [2] was > 8.00 and the “Fold selectivity for SST5 vs SST2” value [2] was “+++ (+++=≥500)”. For the same compound, the pEC50 [2, 3] was > 8.00.

For `Cc1ccnc2nc(-c3cncc(-c4cc(F)cc(C#N)c4)c3N3CC[C@](C)(N)C3)[nH]c12` [Compound 2-202, 3-{4-[(3S)-3-amino-3-methylpyrrolidin-1-yl]-5-{7-methyl-1H-imidazo[4,5-b]pyridin-2-yl}pyridin-3-yl}-5-fluorobenzonitrile], the pEC50 [1] was 6.00 to 7.00, the pEC50 [2] was > 8.00 and the “Fold selectivity for SST5 vs SST2” value [2] was “+++ (+++=≥500)”. For the same compound, the pEC50 [2, 3] was > 8.00.

In the case of `Cc1cc(F)cc(-c2cncc(-c3nc4ccc(Cl)cc4[nH]3)c2N2CC[C@H](N)C2)c1` [Compound 2-196, (3S)-1-[3-(6-chloro-1H-1,3-benzodiazol-2-yl)-5-(3-fluoro-5-methylphenyl)pyridin-4-yl]pyrrolidin-3-amine], the pEC50 [1] was 6.00 to 7.00, the pEC50 [2] was 7.00 to 8.00 and the “Fold selectivity for SST5 vs SST2” value [2] was “+ (+=10 to 99)”. For the same compound, the pEC50 [2, 3] was 7.00 to 8.00.

`CC1(N)CCN(c2c(-c3cccc(Cl)c3)cncc2-c2nc3cccc(F)c3[nH]2)C1` (stereo not shown) [Compound 2-28, 1-[3-(3-chlorophenyl)-5-(4-fluoro-1H-1,3-benzodiazol-2-yl)pyridin-4-yl]-3-methylpyrrolidin-3-amine] was tested, and the pEC50 [1] was 7.00 to 8.00, the pEC50 [2] was > 8.00 and the “Fold selectivity for SST5 vs SST2” value [2] was “++ (++=100 to 499)”. The pEC50 [2, 3] was > 8.00.

Source: patent publication US11608335B2, “Somatostatin modulators and uses thereof” (CRINETICS PHARMACEUTICALS, INC., priority 2018, dated 2023)
